Data from patent US20140271734A1, “BILE ACID RECYCLING INHIBITORS FOR TREATMENT OF BARRETT'S ESOPHAGUS AND GASTROESOPHAGEAL REFLUX DISEASE” (LUMENA PHARMACEUTICALS, INC., priority 2013, published 2014).
Where two headings read alike, the source gives them in different places. Marks after values point to notes of the source that are not given here.

Experiments:
[1] = Toxicokinetics of LUM001 free form, 13-week oral gavage toxicity study in rats; format: in vivo; settings: for AUC(0-t) / Cmax / Tmax: rat, plasma, oral; for AUC(0-t): read-out: AUC(0-24 h)
Experimental: Charles River CD IGS rats were assigned to treatment groups (9sex/toxicokinetic group) and were administered daily doses of 0, 5, 30, 75, and 150 mg/kg (males) or 0, 5, 30, 150, and 500 mg/kg (females). LUM001 was administered by once daily oral gavage in distilled water and fresh dosing solutions were prepared weekly. All animals were dosed with 10 mL/kg/day based on the most recently determined body weights. On Day 1 and during Week 12, approximately 1 mL of venous blood was collected in heparinized tubes from the retro-orbital venous plexus. Animals were anesthetized with CO2-O2 and blood samples were collected at 1, 2, 3, 5, 8, and 24 hours post-dose. Survival permitting, the first 3 animals/sex dose group were bled at 1 and 5 hours post-dose, the second 3 animals/sex/dose group were bled at 2 and 8 hours post-dose, and the last 3 animals/sex/dose group were bled at 3 and 24 hours post-dose. Blood collection tubes were kept on ice during the collection period after which they were centrifuged and the plasma was harvested within approximately 60 minutes of blood collection. Plasma samples were stored at approximately −20° C. or lower until analyzed.
The concentration of LUM001 free form in plasma were determined using an LCMSMS method. The assay sensitivity was 4.75 ng/mL. Means and standard errors of the means (SEM) were calculated for plasma concentrations at each time point. Mean values are significant to three figures and SEM values are significant to the same decimal place as the corresponding mean. Concentration values less than the assay sensitivity (4.75 ng LUM001 free form/mL) were reported as zero. The observed peak plasma concentrations (Cmax) of LUM001 free form, time to reach peak plasma concentration (Tmax) and areas under the plasma concentration-time curve (AUC0-24) were calculated by the TOXAUC computer program (1). For calculation purposes the 0 hr plasma concentrations were set to zero on Day 1 and to the concentrations at 24 hr post dose on Day 78. The TK parameters were calculated from mean data for each group of rats. The bioavailability (% BA) of LUM001 after oral administration of LUM001 was calculated according to the equation below:
% BA=[AUC oral (0-8)/AUC IV(0-8)/Dose oral/Dose IV]×100

[2] = system: serum total bile acid (SBA); assay: Time to onset of activity of LUM001 on postprandial serum bile acids in dogs; format: in vivo, beagle dogs; settings: for Serum bile acids, mean: fed at 0 min
Experimental: LUM001 was dissolved in water at concentrations that required the administration of 0.2 ml/kg of solution. Solutions were placed into gelatin capsules, Torpac Inc., size 13 Batch 594, East Hanover N.J., and administered orally.
Male beagle dogs were obtained from Covance Research Products, Cumberland Va. or Marshall Farms USA, Inc., North Rose N.Y. A total of 20 dogs, 1 to 5 years old, 6.8 to 15.6 kg body weight, were used in these experiments. The dogs were conditioned to a 12 hour light/dark cycle and maintained on a feeding restriction of 1 hour per day access to food (Richman Standard Certified Canine Diet #5007, PMI Nutrition, Inc., St. Louis Mo.) from 7 to 8 AM. They were trained to eat a special meal promptly within 20 minutes when presented (1 can. 397 g, Evanger's 100% Beef for Dogs, Evanger's Dog and Cat Food Co., Inc., Wheeling Ill., mixed with 50 g of sharp cheddar cheese.).
SBA was measured by an enzymatic assay. SBA values are expressed as μg of total bile acids/ml of serum.
To estimate the details of this plateau, 6 dogs were given a test meal and blood samples for SBA measurement were collected at −30, 0, 30, 60, 65, 70, 80, 90, 120, 180, 240, 360, 480, 720, 1410 and 1440 minutes from the time of feeding. Any remaining food was removed 20 min after it was first presented to the dogs. To establish a method for extending the elevated plateau of SBA, 6 dogs were given the meal at 0 hr and an additional ½ size meal again 4 hr after their first meal. Blood samples were taken at 0, 1, 2, 3, 4, 4.5, 6, 7 and 8 hr. The curves for SBA level vs time obtained in these experiments were used as references for determining blood sampling times in experiments with LUM001. Wherever possible, experimental design permitting, in experiments with test compound, each dog served as its own simultaneous control, and the mean 1 hr SBA value served as the reference to which all other mean values were compared.
LUM001 was administered at 0, 0.01, 0.05, 0.2 and 1 mg/kg, p.o. to dogs, n=6, 1 hr after feeding the standard experimental meal. Blood samples for SBA measurement were taken at −30, 0, 30, 60, 65, 70, 80, 90, 120 and 180 minutes from the time of feeding. Each dog served as its own control, and mean SBA levels were compared to the mean SBA level at 60 minutes.

plasma lipase = assay: Plasma lipase in ZDF rats, week 3; format: in vivo; settings: twice daily oral gavage
[3] = both sexes, CD IGS, Day 1, 150 mg/kg, Comb
[4] = both sexes, Charles River CD IGS, Day 78, 30.0 mg/kg, Comb
[5] = both sexes, Charles River CD IGS, Day 78, 150 mg/kg, Comb
[6] = female, CD IGS, Day 1, 150 mg/kg, F
[7] = female, CD IGS, Day 1, 500 mg/kg, F
[8] = female, Charles River CD IGS, Day 78, 30.0 mg/kg, F
[9] = female, Charles River CD IGS, Day 78, 150 mg/kg, F
[10] = female, Charles River CD IGS, Day 78, 500 mg/kg, F
[11] = male, CD IGS, Day 1, 30.0 mg/kg, M
[12] = male, CD IGS, Day 1, 75.0 mg/kg, M
[13] = male, CD IGS, Day 1, 150 mg/kg, M
[14] = male, Charles River CD IGS, Day 78, 5.0 mg/kg, M
[15] = male, Charles River CD IGS, Day 78, 30.0 mg/kg, M
[16] = male, Charles River CD IGS, Day 78, 75.0 mg/kg, M
[17] = male, Charles River CD IGS, Day 78, 150 mg/kg, M

## CCCCC1(CCCC)CS(=O)(=O)c2ccc(N(C)C)cc2[C@@H](c2ccc(OCc3ccc(C[N+]45CCN(CC4)CC5)cc3)cc2)[C@H]1O [LUM001]
[1]; Day 1, 5.0 mg/kg, F
  BA: <0.1%
[1]; Day 1, 5.0 mg/kg, M
  BA: <0.1%
[1]; Day 1, 30.0 mg/kg, F
  BA: <0.1%
[1]; Day 1, 75.0 mg/kg, M
  BA: <0.1%
[1]; Day 1, 150 mg/kg, Comb
  BA: <0.1%
[1]; Day 1, 500 mg/kg, F
  BA: <0.1%
[1]; Day 78, 5.0 mg/kg, F
  BA: <0.1%
[1]; Day 78, 30.0 mg/kg, Comb
  BA: <0.1%
[1]; Day 78, 75.0 mg/kg, M
  BA: <0.1%
[1]; Day 78, 150 mg/kg, Comb
  BA: <0.1%
[1]; Day 78, 500 mg/kg, F
  BA: <0.1%
[1]; both sexes, CD IGS, 150 mg/kg, Day 1, 150 mg/kg, Comb
  AUC(0-t): 101 ng·h/mL
[1]; [3]
  Cmax: 37.3 ng/mL
  Tmax: 2 h
[1]; both sexes, Charles River CD IGS, 30 mg/kg, Day 78, 30.0 mg/kg, Comb
  AUC(0-t): 11.7 ng·h/mL
[1]; both sexes, Charles River CD IGS, 150 mg/kg, Day 78, 150 mg/kg, Comb
  AUC(0-t): 132 ng·h/mL
[1]; [4]
  Cmax: 4.35 ng/mL
  Tmax: 3 h
[1]; [5]
  Cmax: 24.1 ng/mL
  Tmax: 1 h
[1]; female, CD IGS, 150 mg/kg, Day 1, 150 mg/kg, F
  AUC(0-t): 106 ng·h/mL
[1]; [6]
  Cmax: 42.4 ng/mL
  Tmax: 2 h
[1]; [7]
  Cmax: 9.99 ng/mL
  Tmax: 3 h
[1]; female, Charles River CD IGS, 30 mg/kg, Day 78, 30.0 mg/kg, F
  AUC(0-t): 12.4 ng·h/mL
[1]; female, Charles River CD IGS, 150 mg/kg, Day 78, 150 mg/kg, F
  AUC(0-t): 124 ng·h/mL
[1]; female, Charles River CD IGS, 500 mg/kg, Day 1, 500 mg/kg, F
  AUC(0-t): 90.8 ng·h/mL
[1]; female, Charles River CD IGS, 500 mg/kg, Day 78, 500 mg/kg, F
  AUC(0-t): 470 ng·h/mL
[1]; [8]
  Cmax: 3.95 ng/mL
  Tmax: 3 h
[1]; [9]
  Cmax: 22.2 ng/mL
  Tmax: 2 h
[1]; [10]
  Cmax: 62.9 ng/mL
  Tmax: 3 h
[1]; male, CD IGS, 30 mg/kg, Day 1, 30.0 mg/kg, M
  AUC(0-t): 15.1 ng·h/mL
[1]; male, CD IGS, 75 mg/kg, Day 1, 75.0 mg/kg, M
  AUC(0-t): 6.37 ng·h/mL
[1]; male, CD IGS, 150 mg/kg, Day 1, 150 mg/kg, M
  AUC(0-t): 96.3 ng·h/mL
[1]; [11]
  Cmax: 8.59 ng/mL
  Tmax: 2 h
[1]; [12]
  Cmax: 2.55 ng/mL
  Tmax: 5 h
[1]; [13]
  Cmax: 32.1 ng/mL
  Tmax: 3 h
[1]; male, Charles River CD IGS, 5 mg/kg, Day 78, 5.0 mg/kg, M
  AUC(0-t): 11.1 ng·h/mL
[1]; male, Charles River CD IGS, 30 mg/kg, Day 78, 30.0 mg/kg, M
  AUC(0-t): 11.4 ng·h/mL
[1]; male, Charles River CD IGS, 75 mg/kg, Day 78, 75.0 mg/kg, M
  AUC(0-t): 61.4 ng·h/mL
[1]; male, Charles River CD IGS, 150 mg/kg, Day 78, 150 mg/kg, M
  AUC(0-t): 141 ng·h/mL
[1]; [14]
  Cmax: 5.8 ng/mL
  Tmax: 2 h
[1]; [15]
  Cmax: 4.75 ng/mL
  Tmax: 3 h
[1]; [16]
  Cmax: 5.71 ng/mL
  Tmax: 8 h
[1]; [17]
  Cmax: 28.3 ng/mL
  Tmax: 1 h
[2]; 0.05 mg/kg orally 1 hour after feeding
  Time to significantly lowered SBA levels after dosing: 1 to 2 h
[2]; 0.05 mg/kg p.o. at 60 min, 120 min
  Serum bile acids, mean: 6.5* μg/ml
[2]; 0.05 mg/kg p.o. at 60 min, −30 min
  Serum bile acids, mean: 1.4 µg/mL
[2]; 0.2 mg/kg p.o. at 60 min, 30 min
  Serum bile acids, mean: 9.1 µg/mL
[2]; 1 mg/kg vs ED50 dose 0.2 mg/kg
  Onset time to significant SBA lowering: did not shorten the onset time
[2]; administered orally 1 hour after feeding
  Threshold dose, dog SBA model: 0.05 mg/kg

## CCCC[C@]1(CC)CS(=O)(=O)c2ccc(N(C)C)cc2[C@@H](c2cccc(NC(=O)N[C@@H]3O[C@H](COS(=O)(=O)[O-])[C@@H](O)[C@H](OCc4ccccc4)[C@H]3O)c2)[C@H]1O.CCO.O.[K+] [LUM002, potassium((2R,3R,4S,5R,6R)-4-benzyloxy-6-{3-[3-((3S,4R,5R)-3-butyl-7-dimethylamino-3-ethyl-4-hydroxy-1,1-dioxo-2,3,4,5-tetrahydro-1H-benzo[b]thiepin-5-yl)-phenyl]-ureido}-3,5-dihydroxy-tetrahydro-pyran-2-ylmethyl)sulphate ethanolate, hydrate]
Plasma lipase
  Plasma lipase: statistically significant reductions in plasma lipase at higher doses
